{"source": "paper PMC11472058", "about": "“Trinucleotide cap analogs with triphosphate chain modifications: synthesis, properties, and evaluation as mRNA capping reagents” (Nucleic Acids Research, 2024)", "key": {"[1]": {"system": "C57BL/6 mice", "experiment": "In vivo translation efficacy of hEPO-encoding mRNA-LNPs (serum hEPO ELISA)", "conditions": "1 μg mRNA i.v., 4, 8, 24 and 48 h", "experimental": "(§1) Two reporters were selected to determine in vivo protein production: firefly luciferase (FLuc) and human erythropoietin (hEPO). The mRNA encoding each gene was obtained by IVT using T7 RNA polymerase for co-transcriptional capping with m^7Gppp^5′SAmpG and m^7GpppAmpG as the reference cap structure. 500 μl or 1000 μl of the IVT mix (for obtaining mRNA encoding hEPO or FLuc, respectively) contained following components at indicated final concentration: transcription buffer with 2 mM spermidine and Bis-Tris pH 6.5, 1 U/μl RNase inhibitor (RiboLock, ThermoFisher Scientific), 5 mM ATP, CTP and UTP, 4 mM GTP, 10 mM DTT, 25 mM MgCl2, 0.002 U/μl inorganic pyrophosphatase (ThermoFisher Scientific), 10 mM m^7GpppAmpG or m^7Gppp^5’SAmpG, 40 ng/μl linearized plasmid as the DNA template and 0.125 μg/μl T7 RNA polymerase (in-house prepared). All components were gently mixed by pipetting and incubated for one hour at 37°C. After DNA template removal, obtained mRNA was initially purified using oligo(dT)25 resin, as previously described, and concentrated by ultrafiltration (Amicon Ultra-15 50K or 100K, Millipore) prior loading on preparative column. […] Eluate quality was analyzed on 1 × TBE 1.2% agarose gel, and the fractions containing mRNA of the highest purity were combined, desalted by ultrafiltration (Amicon Ultra-15 50K or 100K, Millipore), and precipitated. […]"}, "[2]": {"system": "BALB/c mice", "experiment": "In vivo translation efficacy of FLuc-encoding mRNA-LNPs (whole body bioluminescence)", "conditions": "10 μg mRNA i.v., 4, 8 and 24 h", "experimental": "as §1"}}}
{"smiles": "CO[C@@H]1[C@H](OP(=O)(O)OC[C@H]2O[C@@H](n3cnc4c(=O)[nH]c(N)nc43)[C@H](O)[C@@H]2O)[C@@H](CSP(=O)([O-])OP(=O)(O)OP(=O)(O)OC[C@H]2O[C@@H](n3c[n+](C)c4c(O)nc(N)nc43)[C@H](O)[C@@H]2O)O[C@H]1n1cnc2c(N)ncnc21", "note": "[Compound 8, m^7Gppp^5’SAmpG]", "values": [{"measurement": "serum hEPO protein expression versus m^7GpppAmpG-capped mRNA (in words)", "setting": "[1]; MC3 LNP", "value": "slight increase in protein expression"}, {"measurement": "serum hEPO protein expression versus m^7GpppAmpG-capped mRNA (in words)", "setting": "[1]; SM-102 LNP", "value": "no significant differences"}, {"measurement": "FLuc protein expression (whole body bioluminescence) versus m^7GpppAmpG-capped mRNA (in words)", "setting": "[2]; GeneVoy LNP", "value": "the effect was the opposite"}, {"measurement": "FLuc protein expression (whole body bioluminescence) versus m^7GpppAmpG-capped mRNA (in words)", "setting": "[2]; SM-102 LNP", "value": "no significant differences"}]}
